Measurements as given in US20150344457A1, “METHODS OF INHIBITING PRMT5” (EPIZYME, INC., priority 2012, published 2015).
Read-outs that look alike come from different tables or passages of the source.

Molecular target: T1, PRMT5/MEP50 (Homo sapiens, UniProt O14744)
T1 construct: Expressed full-length human Flag-PRMT5/6His-MeP50 protein complex was purified; made in house; host or cells: Spodoptera frugiperda (SF9) insect cells, baculovirus (pDEST8)
Assay: PRMT5 Biochemical Assay (PRMT5/MEP50 enzyme assay on peptide substrate, 3H-SAM Flashplate)
Conditions: read-out: Biochemical IC50

[1] = Table A-2, PRMT5/MEP50 4 nM, 3H-SAM 75 nM, peptide 40 nM

T1 sequence (O14744 with tags, fused parts or gaps): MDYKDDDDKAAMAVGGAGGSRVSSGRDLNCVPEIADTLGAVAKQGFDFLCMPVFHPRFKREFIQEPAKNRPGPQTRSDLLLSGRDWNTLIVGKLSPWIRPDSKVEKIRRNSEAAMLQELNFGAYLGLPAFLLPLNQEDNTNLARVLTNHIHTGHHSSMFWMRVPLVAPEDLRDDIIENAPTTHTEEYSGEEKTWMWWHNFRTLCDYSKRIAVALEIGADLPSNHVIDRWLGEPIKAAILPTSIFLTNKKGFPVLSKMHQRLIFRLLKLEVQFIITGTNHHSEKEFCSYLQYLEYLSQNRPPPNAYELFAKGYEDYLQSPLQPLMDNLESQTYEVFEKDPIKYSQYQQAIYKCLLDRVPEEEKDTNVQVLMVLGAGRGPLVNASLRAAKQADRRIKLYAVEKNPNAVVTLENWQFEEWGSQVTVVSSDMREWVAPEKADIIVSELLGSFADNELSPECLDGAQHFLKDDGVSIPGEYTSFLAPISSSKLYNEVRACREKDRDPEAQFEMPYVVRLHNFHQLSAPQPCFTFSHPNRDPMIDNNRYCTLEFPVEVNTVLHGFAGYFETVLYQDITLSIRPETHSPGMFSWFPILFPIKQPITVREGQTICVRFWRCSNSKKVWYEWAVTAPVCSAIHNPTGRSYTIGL
T1 sequence (Q9BQA1 with tags, fused parts or gaps partner limits assumed): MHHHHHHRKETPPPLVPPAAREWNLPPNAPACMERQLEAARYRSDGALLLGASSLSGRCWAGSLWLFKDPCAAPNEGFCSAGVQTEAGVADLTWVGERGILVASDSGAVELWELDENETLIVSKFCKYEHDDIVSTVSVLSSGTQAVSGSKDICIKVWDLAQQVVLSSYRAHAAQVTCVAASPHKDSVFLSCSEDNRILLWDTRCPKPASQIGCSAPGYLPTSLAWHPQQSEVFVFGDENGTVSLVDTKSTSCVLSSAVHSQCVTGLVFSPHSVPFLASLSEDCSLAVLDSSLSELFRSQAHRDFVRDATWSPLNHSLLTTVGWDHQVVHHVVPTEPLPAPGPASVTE

## O=C(COc1cccc(CN2CCOCC2)c1)NCC(O)CN1CCc2ccccc2C1 (centres unmarked) [Compound A75]
[1]
  IC50: < 100 nM

## C[C@H](Oc1cccc2cccnc12)C(=O)NC[C@H](O)CN1CCc2ccccc2C1 [Compound A76]
[1]
  IC50: < 100 nM

## O=C(COc1ccccc1N1CCOCC1)NC[C@H](O)CN1CCc2ccccc2C1 [Compound A77]
[1]
  IC50: < 100 nM

## O=C(COc1ccccc1N1CCNCC1)NCC(O)CN1CCc2ccccc2C1 (centres unmarked) [Compound A79]
[1]
  IC50: < 100 nM

## CN1C(=O)COc2cccc(OCC(=O)NCC(O)CN3CCc4ccccc4C3)c21 (centres unmarked) [Compound A80]
[1]
  IC50: < 100 nM

## CN1CCOc2cccc(OCC(=O)NCC(O)CN3CCc4ccccc4C3)c21 (centres unmarked) [Compound A81]
[1]
  IC50: < 100 nM

## Cn1ncc2c(OCC(=O)NCC(O)CN3CCc4ccccc4C3)cccc21 (centres unmarked) [Compound A82]
[1]
  IC50: < 100 nM

## O=C(COc1cccc(C(=O)N2CCOCC2)c1)NCC(O)CN1CCc2ccccc2C1 (centres unmarked) [Compound A83]
[1]
  IC50: 101 to 1000 nM

## CN1CCN(c2ccccc2OCC(=O)NC[C@H](O)CN2CCc3ccccc3C2)CC1 [Compound A84]
[1]
  IC50: < 100 nM

## O=C(COc1ccccc1OCCN1CCOCC1)NC[C@H](O)CN1CCc2ccccc2C1 [Compound A86]
[1]
  IC50: < 100 nM

## CN(C)CCOc1ccccc1OCC(=O)NC[C@H](O)CN1CCc2ccccc2C1 [Compound A88]
[1]
  IC50: < 100 nM

## CC(=O)N1CCN(c2ccccc2OCC(=O)NCC(O)CN2CCc3ccccc3C2)CC1 (centres unmarked) [Compound A90]
[1]
  IC50: < 100 nM

## O=C(COc1cccc2c1CCNC2)NCC(O)CN1CCc2ccccc2C1 (centres unmarked) [Compound A91]
[1]
  IC50: < 100 nM

## O=C(COc1cccc2nccnc12)NCC(O)CN1CCc2ccccc2C1 (centres unmarked) [Compound A92]
[1]
  IC50: < 100 nM

## O=C(COc1cccc(NC2CCOCC2)c1)NCC(O)CN1CCc2ccccc2C1 (centres unmarked) [Compound A93]
[1]
  IC50: < 100 nM

## O=C(COc1c(CN2CCOCC2)ccc2cccnc12)NC[C@H](O)CN1CCc2ccccc2C1 [Compound A94]
[1]
  IC50: < 100 nM

## O=C(COc1ccc2c(cnn2C2CCNC2)c1)NCC(O)CN1CCc2ccccc2C1 (centres unmarked) [Compound A95]
[1]
  IC50: < 100 nM

## Cn1cnc2ccc(-c3cccc(NCC(O)CN4CCc5ccccc5C4)c3)cc21 (centres unmarked) [Compound D102]
Table D-2
  IC50: < 100 nM

## OC(COc1cccc(-c2ccc3ncn(C4CCOCC4)c3c2)c1)CN1CCc2ccccc2C1 (centres unmarked) [Compound D103]
Table D-2
  IC50: 101 to 1000 nM

## OC(COc1cccc(-c2ccc3ncn(-c4ccccc4)c3c2)c1)CN1CCc2ccccc2C1 (centres unmarked) [Compound D104]
Table D-2
  IC50: 101 to 1000 nM

## OC(COc1cccc(-c2ccc3ncn(Cc4ccccc4)c3c2)c1)CN1CCc2ccccc2C1 (centres unmarked) [Compound D105]
Table D-2
  IC50: < 100 nM

## Cn1ncc2ccc(-c3cccc(OCC(O)CN4CCc5ccccc5C4)c3)cc21 (centres unmarked) [Compound D106]
Table D-2
  IC50: < 100 nM

## OC(COc1cccc(-c2ccc3[nH]ncc3c2)c1)CN1CCc2ccccc2C1 (centres unmarked) [Compound D107]
Table D-2
  IC50: 101 to 1000 nM

## Cn1ncc2cc(-c3cccc(OCC(O)CN4CCc5ccccc5C4)c3)ccc21 (centres unmarked) [Compound D108]
Table D-2
  IC50: < 100 nM

## O=c1[nH]c2ccc(-c3cccc(OCC(O)CN4CCc5ccccc5C4)c3)cc2[nH]1 (centres unmarked) [Compound D109]
Table D-2
  IC50: 101 to 1000 nM

## Cc1ccncc1-c1cccc(OCC(O)CN2CCc3ccccc3C2)c1 (centres unmarked) [Compound D113]
Table D-2
  IC50: 101 to 1000 nM

## CN(CC(O)CN1CCc2ccccc2C1)c1cccc(CNC2CCOCC2)c1 (centres unmarked) [Compound D116]
Table D-2
  IC50: < 100 nM

## Cn1cnc2ccc(-c3cccc(NCC(O)CN4CCc5ccccc5C4)n3)cc21 (centres unmarked) [Compound D117]
Table D-2
  IC50: 101 to 1000 nM

## Cn1cnc2ccc(-c3ccnc(NCC(O)CN4CCc5ccccc5C4)c3)cc21 (centres unmarked) [Compound D118]
Table D-2
  IC50: < 100 nM

## Cn1cnc2ccc(-c3ccnc(NCC(O)CN4CCc5ccccc5C4)n3)cc21 (centres unmarked) [Compound D119]
Table D-2
  IC50: 101 to 1000 nM

## Cn1cnc2ccc(-c3cncc(NCC(O)CN4CCc5ccccc5C4)n3)cc21 (centres unmarked) [Compound D121]
Table D-2
  IC50: 101 to 1000 nM

## OC(COc1cccc(-c2ccc(C(F)(F)F)cc2C(F)(F)F)c1)CN1CCc2ccccc2C1 (centres unmarked) [Compound D124]
Table D-2
  IC50: 101 to 1000 nM

## CN(C)c1ncc(-c2cccc(OCC(O)CN3CCc4ccccc4C3)c2)cn1 (centres unmarked) [Compound D125]
Table D-2
  IC50: 101 to 1000 nM

## O=C(c1cccc(-c2cccc(OCC(O)CN3CCc4ccccc4C3)c2)c1)N1CCOCC1 (centres unmarked) [Compound D126]
Table D-2
  IC50: 101 to 1000 nM

## OC(COc1cccc(-c2ccc(C(F)(F)F)cc2Cl)c1)CN1CCc2ccccc2C1 (centres unmarked) [Compound D127]
Table D-2
  IC50: 101 to 1000 nM

## CS(=O)(=O)Nc1ccc(-c2cccc(OCC(O)CN3CCc4ccccc4C3)c2)cc1 (centres unmarked) [Compound D129]
Table D-2
  IC50: 101 to 1000 nM

## CS(=O)(=O)c1cccc(-c2cccc(OCC(O)CN3CCc4ccccc4C3)c2)c1 (centres unmarked) [Compound D130]
Table D-2
  IC50: 101 to 1000 nM

## CS(=O)(=O)c1ccccc1-c1cccc(OCC(O)CN2CCc3ccccc3C2)c1 (centres unmarked) [Compound D131]
Table D-2
  IC50: 101 to 1000 nM

## OC(COc1cccc(-c2ccccc2C(F)(F)F)c1)CN1CCc2ccccc2C1 (centres unmarked) [Compound D132]
Table D-2
  IC50: 101 to 1000 nM

## COc1ccc(Cl)cc1-c1cccc(OCC(O)CN2CCc3ccccc3C2)c1 (centres unmarked) [Compound D134]
Table D-2
  IC50: 101 to 1000 nM

## COC(=O)c1cccc(-c2cccc(OCC(O)CN3CCc4ccccc4C3)c2)c1 (centres unmarked) [Compound D135]
Table D-2
  IC50: 101 to 1000 nM

## Cn1ncc2ccc(-c3cc(COCC(O)CN4CCc5ccccc5C4)on3)cc21 (centres unmarked) [Compound D136]
Table D-2
  IC50: 101 to 1000 nM

## CC(=O)c1ccc(-c2cccc(OCC(O)CN3CCc4ccccc4C3)c2)cc1 (centres unmarked) [Compound D137]
Table D-2
  IC50: 101 to 1000 nM

## Cc1ccc(F)c(-c2cccc(OCC(O)CN3CCc4ccccc4C3)c2)c1 (centres unmarked) [Compound D138]
Table D-2
  IC50: 101 to 1000 nM

## OC(COc1cccc(-c2cccnc2F)c1)CN1CCc2ccccc2C1 (centres unmarked) [Compound D139]
Table D-2
  IC50: 101 to 1000 nM

## Cn1ccc2cnc(-c3cccc(OCC(O)CN4CCc5ccccc5C4)c3)nc21 (centres unmarked) [Compound D141]
Table D-2
  IC50: < 100 nM

## O=C(Nc1cccc(OCC(O)CN2CCc3ccccc3C2)c1)c1cnccn1 (centres unmarked) [Compound D145]
Table D-2
  IC50: 101 to 1000 nM

## Cn1ccc2ccc(-c3cccc(OCC(O)CN4CCc5ccccc5C4)c3)cc21 (centres unmarked) [Compound D147]
Table D-2
  IC50: 101 to 1000 nM

## O=C1NCc2ccc(-c3cccc(OCC(O)CN4CCc5ccccc5C4)c3)cc21 (centres unmarked) [Compound D148]
Table D-2
  IC50: 101 to 1000 nM

## CN1CCN(c2ccc(-c3cccc(OCC(O)CN4CCc5ccccc5C4)c3)cn2)CC1 (centres unmarked) [Compound D149]
Table D-2
  IC50: 101 to 1000 nM

## CC(C)(C)OCc1cccc(-c2cccc(OCC(O)CN3CCc4ccccc4C3)c2)c1 (centres unmarked) [Compound D150]
Table D-2
  IC50: 101 to 1000 nM

## CN(C)c1ccc(-c2cccc(OCC(O)CN3CCc4ccccc4C3)c2)cc1 (centres unmarked) [Compound D151]
Table D-2
  IC50: 101 to 1000 nM

## NC(=O)c1ccc(-c2cccc(OCC(O)CN3CCc4ccccc4C3)c2)cc1 (centres unmarked) [Compound D152]
Table D-2
  IC50: 101 to 1000 nM

## O=C1COc2ccc(-c3cccc(OCC(O)CN4CCc5ccccc5C4)c3)cc2N1 (centres unmarked) [Compound D156]
Table D-2
  IC50: 101 to 1000 nM

## Cn1nccc1C(=O)Nc1cccc(OCC(O)CN2CCc3ccccc3C2)c1 (centres unmarked) [Compound D160]
Table D-2
  IC50: 1000 to 10000 nM

## O=C(Nc1cccc(OCC(O)CN2CCc3ccccc3C2)c1)c1cncnc1 (centres unmarked) [Compound D161]
Table D-2
  IC50: 1000 to 10000 nM

## Cn1ccc(C(=O)Nc2cccc(OCC(O)CN3CCc4ccccc4C3)c2)n1 (centres unmarked) [Compound D162]
Table D-2
  IC50: 1000 to 10000 nM

## OC(COc1cccc(-c2ccc3cnoc3c2)c1)CN1CCc2ccccc2C1 (centres unmarked) [Compound D166]
Table D-2
  IC50: 1000 to 10000 nM

## OC(COc1cccc(-c2ccccc2Oc2ccccc2)c1)CN1CCc2ccccc2C1 (centres unmarked) [Compound D167]
Table D-2
  IC50: 101 to 1000 nM

## COc1ccc(-c2cccc(OCC(O)CN3CCc4ccccc4C3)c2)cc1Cl (centres unmarked) [Compound D168]
Table D-2
  IC50: 101 to 1000 nM

## CC(=O)Nc1cccc(-c2cccc(OCC(O)CN3CCc4ccccc4C3)c2)c1 (centres unmarked) [Compound D169]
Table D-2
  IC50: 101 to 1000 nM

## OC(COc1cccc(-c2csc3ccccc23)c1)CN1CCc2ccccc2C1 (centres unmarked) [Compound D170]
Table D-2
  IC50: 101 to 1000 nM

## NC(=O)c1cccc(-c2cccc(OCC(O)CN3CCc4ccccc4C3)c2)c1 (centres unmarked) [Compound D171]
Table D-2
  IC50: 101 to 1000 nM

## N#Cc1cccc(-c2cccc(OCC(O)CN3CCc4ccccc4C3)c2)c1 (centres unmarked) [Compound D172]
Table D-2
  IC50: 101 to 1000 nM

## Cn1cnc2ccc(-c3cccc(OC[C@H](O)CN4CCc5ccccc5C4)c3)cc21 [Compound D174]
Table D-2
  IC50: < 100 nM

## Cn1ccc2ccc(-c3cccc(OCC(O)CN4CCc5ccccc5C4)c3)nc21 (centres unmarked) [Compound D176]
Table D-2
  IC50: < 100 nM

## COC(=O)c1cncc(-c2cccc(OCC(O)CN3CCc4ccccc4C3)c2)c1 (centres unmarked) [Compound D180]
Table D-2
  IC50: 1000 to 10000 nM

## CNC(=O)c1cncc(-c2cccc(OCC(O)CN3CCc4ccccc4C3)c2)c1 (centres unmarked) [Compound D182]
Table D-2
  IC50: 1000 to 10000 nM

## Cn1cnc(C(=O)Nc2cccc(OCC(O)CN3CCc4ccccc4C3)c2)c1 (centres unmarked) [Compound D183]
Table D-2
  IC50: 1000 to 10000 nM

## O=C(c1cccc(-c2cccc(OCC(O)CN3CCc4ccccc4C3)c2)c1)N1CCCC1 (centres unmarked) [Compound D185]
Table D-2
  IC50: 101 to 1000 nM

## CNC(=O)c1cccc(-c2cccc(OCC(O)CN3CCc4ccccc4C3)c2)c1 (centres unmarked) [Compound D186]
Table D-2
  IC50: 101 to 1000 nM

## Cc1cn(C)c2cc(-c3cccc(OCC(O)CN4CCc5ccccc5C4)c3)ccc12 (centres unmarked) [Compound D187]
Table D-2
  IC50: 101 to 1000 nM

## OC(COc1cccc(-c2ccc3ncoc3c2)c1)CN1CCc2ccccc2C1 (centres unmarked) [Compound D188]
Table D-2
  IC50: 101 to 1000 nM

## Cn1cnc2ccc(-c3cccc(OCC(O)CN4CCc5ccccc5C4)c3)nc21 (centres unmarked) [Compound D189]
Table D-2
  IC50: < 100 nM

## Cn1cnc2cnc(-c3cccc(OCC(O)CN4CCc5ccccc5C4)c3)nc21 (centres unmarked) [Compound D191]
Table D-2
  IC50: 101 to 1000 nM

## Cn1cnc2ccc(-c3cncc(NCC(O)CN4CCc5ccccc5C4)c3)cc21 (centres unmarked) [Compound D199]
Table D-2
  IC50: < 100 nM

## OC(COc1cccc(-c2cc(OC(F)(F)F)ccc2Cl)c1)CN1CCc2ccccc2C1 (centres unmarked) [Compound D200]
Table D-2
  IC50: 101 to 1000 nM

## CC(C)Oc1ccc(F)c(-c2cccc(OCC(O)CN3CCc4ccccc4C3)c2)c1 (centres unmarked) [Compound D201]
Table D-2
  IC50: 101 to 1000 nM

## Cn1ncc2ccc(-c3cc(NCC(O)CN4CCc5ccccc5C4)ncn3)cc21 (centres unmarked) [Compound D205]
Table D-2
  IC50: 101 to 1000 nM

## Cn1cnc2ccc(-c3cc(NCC(O)CN4CCc5ccccc5C4)ncn3)cc21 (centres unmarked) [Compound D207]
Table D-2
  IC50: 101 to 1000 nM
